{"source": "PubChem BioAssay AID256", "about": "(DTP/NCI, 2004)", "system": "CD2F1 mice, L1210 leukemia ip, survival T/C", "assay": "NCI In Vivo Anticancer Drug Screen. Data for tumor model L1210 Leukemia (intraperitoneal) in CD2F1 (CDF1) mice", "details": "higher = longer survival", "procedure,_shortened": "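In this screen, transplantable tumors were grown in mice given either the compound or its vehicle. Results were expressed as the treated measurement relative to the control measurement.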", "key": {"[1]": {"details": "endpoint: mean survival time, dose: 100.0 mg/kg/injection, schedule: Q04DX003 (ip), vehicle: saline with Tween-80"}, "[2]": {"details": "endpoint: mean survival time, dose: 200.0 mg/kg/injection, schedule: Q04DX003 (ip), vehicle: saline with Tween-80"}, "[3]": {"details": "endpoint: mean survival time, dose: 400.0 mg/kg/injection, schedule: Q04DX003 (ip), vehicle: saline with Tween-80"}, "[4]": {"details": "endpoint: mean survival time, dose: 100.0 mg/kg/injection, schedule: Q01DX009 (ip), vehicle: saline with Tween-80"}, "[5]": {"details": "endpoint: mean survival time, dose: 200.0 mg/kg/injection, schedule: Q01DX009 (ip), vehicle: saline with Tween-80"}, "[6]": {"details": "endpoint: mean survival time, dose: 400.0 mg/kg/injection, schedule: Q01DX009 (ip), vehicle: saline with Tween-80"}}, "note": "Several values for one entry are separate records, joined by “and”; a condition that tells them apart may be missing. Equal entries are not always repeated. Inconclusive results and toxic doses are left out."}
{"molecule": "COC(=O)/C(Br)=C/N(Cc1ccccc1)Cc1ccccc1", "values": [{"measurement": "T/C", "setting": "endpoint: mean survival time, dose: 100.0 mg/kg/injection, schedule: Q01DX009 (ip), vehicle: saline sonified", "value": "101 % of control"}, {"measurement": "T/C", "setting": "[1]", "value": "94 % of control"}, {"measurement": "T/C", "setting": "endpoint: mean survival time, dose: 200.0 mg/kg/injection, schedule: Q01DX009 (ip), vehicle: saline sonified", "value": "101 % of control"}, {"measurement": "T/C", "setting": "[2]", "value": "93 % of control"}, {"measurement": "T/C", "setting": "endpoint: mean survival time, dose: 400.0 mg/kg/injection, schedule: Q01DX009 (ip), vehicle: saline sonified", "value": "103 % of control"}, {"measurement": "T/C", "setting": "[3]", "value": "96 % of control"}]}
{"molecule": "CC(C)CNC(=O)Nc1ccccc1C(F)(F)F", "values": [{"measurement": "T/C", "setting": "[4]", "value": "96 % of control"}, {"measurement": "T/C", "setting": "[5]", "value": "98 % of control"}, {"measurement": "T/C", "setting": "[6]", "value": "91 % of control"}]}
{"molecule": "CC(=O)OC1COCOC1C1OCOCC1OC(C)=O", "note": "(configuration not stated)", "values": [{"measurement": "T/C", "setting": "endpoint: mean survival time, dose: 50.0 mg/kg/injection, schedule: Q01DX009 (ip), vehicle: Klucel (hydroxypropylcellulose) (HPC)", "value": "102 % of control"}, {"measurement": "T/C", "setting": "endpoint: mean survival time, dose: 100.0 mg/kg/injection, schedule: Q01DX009 (ip), vehicle: Klucel (hydroxypropylcellulose) (HPC)", "value": "102 % of control"}, {"measurement": "T/C", "setting": "endpoint: mean survival time, dose: 200.0 mg/kg/injection, schedule: Q01DX009 (ip), vehicle: Klucel (hydroxypropylcellulose) (HPC)", "value": "110 % of control"}]}
{"molecule": "N=C(N)SCc1cccs1", "values": [{"measurement": "T/C", "setting": "endpoint: mean survival time, dose: 25.0 mg/kg/injection, schedule: Q01DX009 (ip), vehicle: saline", "value": "100 % of control"}, {"measurement": "T/C", "setting": "endpoint: mean survival time, dose: 50.0 mg/kg/injection, schedule: Q01DX009 (ip), vehicle: saline", "value": "103 % of control"}, {"measurement": "T/C", "setting": "endpoint: mean survival time, dose: 100.0 mg/kg/injection, schedule: Q01DX009 (ip), vehicle: saline", "value": "95 % of control"}]}
{"molecule": "CCOC(=O)NC(O)C(Cl)(Cl)Cl", "note": "(configuration not stated)", "values": [{"measurement": "T/C", "setting": "[4]", "value": "97 % of control"}, {"measurement": "T/C", "setting": "[5]", "value": "106 % of control"}, {"measurement": "T/C", "setting": "[6]", "value": "112 % of control"}]}
{"molecule": "CCCCCC(Br)C(Br)CC(Br)C(Br)CCCCCCCC(=O)O", "note": "(configuration not stated)", "values": [{"measurement": "T/C", "setting": "endpoint: mean survival time, dose: 100.0 mg/kg/injection, schedule: Q01DX009 (ip), vehicle: acetone", "value": "95 % of control"}, {"measurement": "T/C", "setting": "endpoint: mean survival time, dose: 200.0 mg/kg/injection, schedule: Q01DX009 (ip), vehicle: acetone", "value": "92 % of control"}, {"measurement": "T/C", "setting": "endpoint: mean survival time, dose: 400.0 mg/kg/injection, schedule: Q01DX009 (ip), vehicle: acetone", "value": "90 % of control"}]}
{"molecule": "OC1COC(C(F)(F)F)(C(F)(F)F)C1", "note": "(configuration not stated)", "values": [{"measurement": "T/C", "setting": "[1]", "value": "94 % of control"}, {"measurement": "T/C", "setting": "[2]", "value": "93 % of control"}, {"measurement": "T/C", "setting": "[3]", "value": "96 % of control"}]}
{"molecule": "NC(=O)c1ncn2c(=O)n(CCCl)nnc12", "values": [{"measurement": "T/C", "setting": "endpoint: median survival time, dose: 3.0 mg/kg/injection, schedule: Q01DX009 (ip), vehicle: saline", "value": "174 % of control"}, {"measurement": "T/C", "setting": "endpoint: median survival time, dose: 3.12 mg/kg/injection, schedule: Q01DX009 (ip), vehicle: saline", "value": "212 % of control"}, {"measurement": "T/C", "setting": "endpoint: median survival time, dose: 6.0 mg/kg/injection, schedule: Q01DX009 (ip), vehicle: saline", "value": "223 % of control"}, {"measurement": "T/C", "setting": "endpoint: median survival time, dose: 6.25 mg/kg/injection, schedule: Q01DX009 (ip), vehicle: saline", "value": "184 % of control and 214 % of control and 365 % of control"}, {"measurement": "T/C", "setting": "endpoint: median survival time, dose: 6.25 mg/kg/injection, schedule: Q01DX009 (ip), vehicle: suspension in saline", "value": "182 % of control"}, {"measurement": "T/C", "setting": "endpoint: median survival time, dose: 12.0 mg/kg/injection, schedule: Q01DX009 (ip), vehicle: saline", "value": "352 % of control"}, {"measurement": "T/C", "setting": "endpoint: median survival time, dose: 12.5 mg/kg/injection, schedule: Q01DX009 (ip), vehicle: saline", "value": "222 % of control and 365 % of control (2×)"}, {"measurement": "T/C", "setting": "endpoint: median survival time, dose: 12.5 mg/kg/injection, schedule: Q01DX009 (ip), vehicle: suspension in saline", "value": "322 % of control"}, {"measurement": "T/C", "setting": "endpoint: median survival time, dose: 25.0 mg/kg/injection, schedule: Q01DX009 (ip), vehicle: suspension in saline", "value": "322 % of control"}, {"measurement": "T/C", "setting": "endpoint: median survival time, dose: 50.0 mg/kg/injection, schedule: Q01DX009 (ip), vehicle: suspension in saline", "value": "100 % of control"}]}
{"molecule": "Cc1ccc(NC(=O)c2ccccc2)c(C)c1", "values": [{"measurement": "T/C", "setting": "[4]", "value": "90 % of control"}, {"measurement": "T/C", "setting": "[1]", "value": "92 % of control"}, {"measurement": "T/C", "setting": "[5]", "value": "86 % of control"}, {"measurement": "T/C", "setting": "[2]", "value": "92 % of control"}, {"measurement": "T/C", "setting": "[3]", "value": "92 % of control"}]}
{"molecule": "CC(=O)OC1CCC2(C)C(CCC3C2CCC2(C)C(c4cccc(=O)o4)CCC32)C1", "note": "(configuration not stated)", "values": [{"measurement": "T/C", "setting": "endpoint: mean survival time, dose: 100.0 mg/kg/injection, schedule: Q01DX001 (ip), vehicle: saline", "value": "101 % of control"}, {"measurement": "T/C", "setting": "endpoint: mean survival time, dose: 200.0 mg/kg/injection, schedule: Q01DX001 (ip), vehicle: saline", "value": "97 % of control"}, {"measurement": "T/C", "setting": "endpoint: mean survival time, dose: 400.0 mg/kg/injection, schedule: Q01DX001 (ip), vehicle: saline", "value": "95 % of control"}]}
